Results: article PMC3700072, “Synthesis, Anti-Inflammatory, and Ulcerogenicity Studies of Novel Substituted and Fused Pyrazolo[3,4-d]pyrimidin-4-ones” (Scientia Pharmaceutica, 2013)

Key:
[1] = tested on: carrageenan-induced rat paw edema; assay: carrageenan-induced rat paw edema test; format: in vivo; parameters: Mean increase in edema weight ± SEM: unit not given here; details: rats, 10 mg/kg intraperitoneally, 4 h after carrageenan; for inhibition in vivo at 10 mg/kg / change in vivo at 10 mg/kg: Rattus norvegicus, ip; for inhibition in vivo at 10 mg/kg: 4 h, read-out: %Inhibition of Paw edema from control group (edema reduction); for change in vivo at 10 mg/kg / Mean increase in edema weight ± SEM: N = 6; for change in vivo at 10 mg/kg: read-out: Mean % increase in edema weight ± SEM; for % Activity relative to indomethacine: indomethacin = 100
Description: The in vivo anti-inflammatory effects of the newly synthesized pyrazolopyrimidine derivatives were assessed by utilizing the functional model of carrageenan-induced rat paw edema using indomethacin as the reference drug. Mean changes and the percent increase in paw edema weight of animals pretreated with the tested compounds after 4 h from the induction of inflammation were measured, together with the percent inhibition of induced rat paw edema by the tested compounds. The anti-inflammatory activity (relative potency) of the tested compounds relative to that of indomethacin was also calculated (Table 1) (Fig. 2).
The in vivo carrageenan-induced rat paw edema model of inflammation was used to evaluate the anti-inflammatory properties of the newly synthesized compounds according to the previously reported Winter et al. method.
Adult male albino rats weighing 100–120 g (obtained from the animal house of the department of Physiology, Faculty of Medicine, Alexandria University) were used throughout the work. Animals were randomly divided into groups of six rats each. They were kept in an animal house under standard conditions of light and temperature with free access to food and water ad libitum and allowed to be accustomed to their environment for two days before testing.
Indomethacin, used as a reference standard (Khahira for Pharmaceutical and Chemical Industry, Cairo, Egypt), and the test compounds were dissolved in DMSO and were injected intraperitoneally at a dose level of 10 mg/kg body weight. Control animals, on the other hand, were intraperitoneally injected with appropriate volume of DMSO only. After one hour of the above treatment, an inflammatory edema in the right hind paw of all animals was induced by subcutaneous injection of 0.05 ml of freshly prepared solution of 1% carrageenan (λ-Carrageenan Sigma–Aldrich Corp. St. Louis, MO, USA) in sterile normal saline (0.9%), into the subplantar tissue of the paw. An equal volume of saline was injected to the left hind paw and served as internal control for the degree of inflammation in the right hind paw.
Four hours after carrageenan injection, animals were decapitated and both the right and left hind paws were excised at a standard point and weighed. The difference in weight from edema between right and left paws was taken as a measure of the degree of inflammation for each animal. The mean increase in weight of the carrageenan-injected paw over the other paw in each group was measured and the percent increase of edema was calculated. The anti-inflammatory efficacy of the tested compounds was assessed by comparing the change in paw weight in the treated animals with that in control animals (treated with DMSO only) and expressed as a percent inhibition of the edema (percent protection against inflammation), calculated according to the following equation: % Inhibition of edema=(1-Wt/Wc)×100 where Wt is the mean increase in paw weight in rats treated with the test compounds and Wc is the mean increase in paw weight in the control group. The anti-inflammatory activity of the test compounds relative to that of indomethacin was also determined (Table 2).
In the anti-inflammatory study, data obtained were expressed as the mean ± standard error (SEM). Statistical significance was determined by comparing the values of the test compounds and the standard with those obtained from the control group of animals using One-way ANOVA with Dunnett’s post-test using the GraphPad Prism version 3.00 for Windows (GraphPad Software, San Diego California USA, www.graphpad.com). The difference in results was considered significant if P < 0.001.

gastric mucosa of rats = assay: gastric ulcerogenic effect (Meshali's method, ulcer index by Robert's method); format: in vivo, rat; parameters: key to Ulcer index: ulcer index = %incidence/10 + avg no. of ulcers + avg severity (0–4)
Description: The ulcer index was calculated according to Robert’s method.
Adult male albino rats weighing between 100 and 120 g were used. Animals were divided into groups of five animals each. Rats were fasted 20 h before drug administration. Water was given ad libitum. The control group received the vehicle (1% gum acacia) orally. Other groups received indomethacin or test compounds orally in a dose of 10 mg/kg body weight suspended in 1% gum acacia. Rats were fasted for 2 h, allowed to feed for 2 h, then fasted for another 20 h. Rats were given another two doses on the second and third days. On the fourth day, rats were sacrificed by diethyl ether; the stomach of each rat was removed, opened along the greater curvature, and rinsed with cold 0.9% saline. The stomach was stretched, by pins, on a corkboard and inspected with a 3x magnifying lens for any evidence of mucosal damage. The ulcer index was calculated according to Robert’s method. The number of mucosal damage (red spots) was counted and their severity (ulcerogenic severity) was graded from 0 to 4 according to the following score assignment:
The following figures were calculated: • –– % Incidence/10 = [number of rats showing ulcer of any grade divided by total number of rats in the group × 100]/10. • –– Average number of ulcers: number of ulcers in the group/total number of rats in the group. • –– Average severity: Σ [each ulcer multiplied by its score of severity]/number of ulcers in the group. • Ulcer index = the sum of the 3 figures. • Results are tabulated in Table 2.

Row | SMILES | inhibition in vivo at 10 mg/kg [1] | change in vivo at 10 mg/kg [1] | Mean increase in edema weight ± SEM [1] | % Activity relative to indomethacine [1] | melting point | % ulceration in the population of test animals (gastric mucosa of rats; oral 10 mg/kg) | Average No. of ulcer (gastric mucosa of rats; oral 10 mg/kg on three days) | % Incidence/10 (gastric mucosa of rats; oral 10 mg/kg on three days, 5 animals per group) | % Ulcerogenicity relative to indomethacin (gastric mucosa of rats; oral 10 mg/kg on three days, indomethacin = 100) | Average severity (gastric mucosa of rats; oral 10 mg/kg on three days, score 0 to 4) | Ulcer index (gastric mucosa of rats; oral 10 mg/kg on three days, sum of the 3 figures)
1 | Cc1nc2c(cnn2-c2ccccc2)c(=O)n1N [Compound 5, 5-Amino-6-methyl-1-phenyl-1,5-dihydro-4H-pyrazolo[3,4-d]pyrimidin-4-one] | 33.1% | 19.8 ± 1.6% | 1.05 ± 0.089 | 48.60% |  |  |  |  |  |  | 
2 | Cc1nc2c(cnn2-c2ccccc2)c(=O)n1N=Cc1ccccc1 [Compound 7a, 5-(Benzylideneamino)-6-methyl-1-phenyl-1,5-dihydro-4H-pyrazolo[3,4-d]pyrimidin-4-one] | 34.4% | 15.3 ± 0.515% | 1.03 ± 0.033 | 50.46% | 184 to 186 °C |  |  |  |  |  | 
3 | Cc1nc2c(cnn2-c2ccccc2)c(=O)n1N=Cc1ccc(Cl)cc1 [Compound 7b, 5-[(4-Chlorobenzylidene)amino]-6-methyl-1-phenyl-1,5-dihydro-4H-pyrazolo[3,4-d]-pyrimidin-4-one] | 36.3% | 15.2 ± 1.4% | 1.00 ± 0.063 | 53.28% | 195 to 196 °C |  |  |  |  |  | 
4 | Cc1nc2c(cnn2-c2ccccc2)c(=O)n1N1C(=O)CSC1c1ccccc1 (centres unmarked) [Compound 8a, 6-Methyl-5-(4-oxo-2-phenyl-1,3-thiazolidin-3-yl)-1-phenyl-1,5-dihydro-4H-pyrazolo[3,4-d]-pyrimidin-4-one] | 37.6% | 12.5 ± 0.376% | 0.98 ± 0.017 | 55.14% | 179 to 181 °C |  |  |  |  |  | 
5 | Cc1nc2c(cnn2-c2ccccc2)c(=O)n1N1C(=O)CSC1c1ccc(Cl)cc1 (centres unmarked) [Compound 8b, 5-[2-(4-Chlorophenyl)-4-oxo-1,3-thiazolidin-3-yl]-6-methyl-1-phenyl-1,5-dihydro-4H-pyrazolo[3,4-d]pyrimidin-4-one] | 40.8% | 13 ± 0.702% | 0.93 ± 0.042 | 59.81% | 191 to 195 °C |  |  |  |  |  | 
6 | Cc1nc2c(cnn2-c2ccccc2)c(=O)n1NC(=S)Nc1ccccc1 [Compound 9a, 1-(6-Methyl-4-oxo-1-phenyl-1,4-dihydro-5H-pyrazolo[3,4-d]pyrimidin-5-yl)-3-phenylthiourea] | 42.7% | 12.7 ± 0.748% | 0.90 ± 0.058 | 62.63% | 145 to 150 °C |  |  |  |  |  | 
7 | Cc1nc2c(cnn2-c2ccccc2)c(=O)n1NC(=S)Nc1ccc(Cl)cc1 [Compound 9b, 1-(4-Chlorophenyl)-3-(6-methyl-4-oxo-1-phenyl-1,4-dihydro-5H-pyrazolo[3,4-d]pyrimidin-5-yl)thiourea] | 47.8% | 15.7 ± 1.03% | 0.82 ± 0.048 | 70.10% | 157 to 160 °C |  |  |  |  |  | 
8 | Cc1nc2c(cnn2-c2ccccc2)c(=O)n1N=C1SCC(=O)N1c1ccccc1 [Compound 10a, 6-Methyl-5-[(4-oxo-3-phenyl-1,3-thiazolidin-2-ylidene)amino]-1-phenyl-1,5-dihydro-4H-pyrazolo[3,4-d]pyrimidin-4-one] | 52.2% | 9.5 ± 0.326% | 0.75 ± 0.022 | 76.64% | 264 to 267 °C |  |  |  |  |  | 
9 | Cc1nc2c(cnn2-c2ccccc2)c(=O)n1N1C(=O)CC(=O)N(c2ccccc2)C1=S [Compound 12a, 1-(6-Methyl-4-oxo-1-phenyl-1,4-dihydro-5H-pyrazolo[3,4-d]pyrimidin-5-yl)-3-phenyl-2-thioxodihydropyrimidine-4,6(1H,5H)-dione] | 35% | 13.6 ± 0.795% | 1.02 ± 0.060 |  |  |  |  |  |  |  | 
10 | Cc1nc2c(cnn2-c2ccccc2)c(=O)n1N1C(=O)CC(=O)N(c2ccc(Cl)cc2)C1=S [Compound 12b, 1-(4-Chlorophenyl)-3-(6-methyl-4-oxo-1-phenyl-1,4-dihydro-5H-pyrazolo[3,4-d]pyrimidin-5-yl)-2-thioxodihydropyrimidine-4,6(1H,5H)-dione] | 45.9% | 19.3 ± 0.905% | 0.85 ± 0.043 | 67.29% | 198 to 201 °C |  |  |  |  |  | 
11 | Nn1c(C=O)nc2c(cnn2-c2ccccc2)c1=O [Compound 13, 5-Amino-4-oxo-1-phenyl-4,5-dihydro-1H-pyrazolo[3,4-d]pyrimidine-6-carbaldehyde] | 39.5% | 15.1 ± 1.07% | 0.95 ± 0.043 | 57.95% | 145 to 146 °C |  |  |  |  |  | 
12 | CCOC(=O)c1cc2nc3c(cnn3-c3ccccc3)c(=O)n2nc1N [Compound 14, Ethyl 7-amino-4-oxo-1-phenyl-1,4-dihydropyrazolo[3′,4′:4,5]pyrimido[1,2-b]-pyridazine-8-carboxylate] | 44.6% | 11.1 ± 1.14% | 0.87 ± 0.076 | 65.43% | 155 to 156 °C |  |  |  |  |  | 
13 | CCOC(=O)c1cc2nc3c(cnn3-c3ccccc3)c(=O)n2[nH]c1=O [Compound 15, Ethyl 4,7-dioxo-1-phenyl-1,4,6,7-tetrahydropyrazolo[3′,4′:4,5]pyrimido[1,2-b]-pyridazine-8-carboxylate] | 41.4% | 16.4 ± 1.02% | 0.92 ± 0.060 | 60.75% | 172 to 173 °C |  |  |  |  |  | 
14 | O=c1c2cnn(-c3ccccc3)c2nc2ccc(-c3ccccc3)nn12 [Compound 16, 1,7-Diphenylpyrazolo[3′,4′:4,5]pyrimido[1,2-b]pyridazin-4(1H)-one] | 28.1% | 14.3 ± 0.98% | 1.13 ± 0.067 | 41.13% | 118 to 119 °C |  |  |  |  |  | 
15 | COc1ccc2c(c1)c(CC(=O)O)c(C)n2C(=O)c1ccc(Cl)cc1 [Indomethacin, reference compound] | 68.2% | 6.37 ± 0.366% | 0.50 ± 0.026 | 100.0% |  | 100% | 4.4 | 10 | 100.00% | 2.86 | 17.26
